Experimental findings from paper PMC5457276, “Influence of Amphibian Antimicrobial Peptides and Short Lipopeptides on Bacterial Biofilms Formed on Contact Lenses” (Materials, 2016) are described below.

What all share (type): cell-based
Assay [1] has as its system Pseudomonas aeruginosa ATCC 9027 biofilm on contact lenses. Particulars: for Concentration eliminating P. aeruginosa from the lens surface (MBEC): ATCC 9027, 24 h; for Minimum biofilm eradication concentration (reduction of resazurin ≤10% ± 0.5%): P. aeruginosa, triplicate. The method, then:
(§1) All selected strains were obtained from the Polish Collection of Microorganisms (Polish Academy of Science, Wroclaw, Poland). Four Gram-positive and three Gram-negative strains linked with CL-related infections lenses were tested (Table 5). The microorganisms were cultured in a Mueller Hinton Broth II (MHB, Biocorp, Warsaw, Poland) overnight, at 37 °C.
(§2) The CL and CL solutions used are commercially available. One-day CL (1-Day Acuvue Moist) containing Etafilcon A were obtained from Johnson and Johnson Vision Care (Jacksonsville, FL, USA). Four popular CL solutions were also tested (Table 6).
(§3) Biofilms of strains related with ocular infections were cultured on CL placed in polystyrene 24-well plates (Orange Scientific, Braine-l’Alleud, Belgium). Biomaterials were incubated at 37 °C in bacterial suspension in the Mueller Hinton Broth II (Biocorp, Warsaw, Poland) at initial inoculums of ca. 5 × 10^5 CFU/mL. After 24 h of incubation all of the CL were rinsed three times with a sterile phosphate buffer (AppliChem, Darmstadt, Germany). The lenses were then transferred into new wells with fresh MHB II. One-day biofilms were exposed to a pre-determined range of peptides concentration. […] Anti-biofilm activity of selected peptides was visualized using a cell-viability reagent, Resazurin (Sigma Aldrich, St. Louis, MO, USA). Upon contact with living cells the dye is metabolized by bacterial dehydrogenases resulting in the reduction of the blue resazurin to a pink resorufin. Positive controls contained CL immersed in bacterial suspensions without antimicrobials, while CL in a sterile culture medium served as negative controls. The minimum biofilm eradication concentration (MBEC) was read after a one-hour incubation with Resazurin (final concentration per sample = 0.005%) MBEC was determined as the lowest concentration at which the reduction of resazurin was lower or equal (10% ± 0.5%) as compared to positive (100%) and negative (0%) controls. All experiments were performed in triplicate.
On the technique in general: Resazurin is reduced to fluorescent resorufin, in cell work by metabolically active cells.

The test system of assay [2] is Escherichia coli ATCC 25922 biofilm on contact lenses. As to conditions: for Minimum biofilm eradication concentration (reduction of resazurin ≤10% ± 0.5%): E. coli, triplicate. The method, then:
as §1, §2, §3

Assay [3] has as its system biofilms formed by Gram-positive bacteria on contact lenses. As to the kind of experiment: Biofilm assay on contact lenses (MBEC), summary over Gram-positive strains. Particulars: both temperatures (25 °C and 37 °C). The method, then: as §1, §2, §3
In assay [4] the test system is Escherichia coli ATCC 25922. Particulars: E. coli; same MIC in μM (in brackets); broth microdilution, MHB II, overnight at 37 °C, triplicate. The method, then: as §1
(§4) Peptide susceptibility tests on the reference bacterial strains were performed with the following procedures recommended by the Clinical and Laboratory Standard Institute (CLSI). The activity of five peptides was tested on the Mueller Hinton Broth II (Biocorp, Warsaw, Poland) using broth microdilution method on polystyrene 96-well plates (Kartell, Noviglio, Italy). […] The plates were incubated overnight at 37 °C. MIC was assumed as the lowest concentration at which bacterial growth was no longer visible. All experiments were performed in triplicate.
Background: In broth dilution the organism is exposed to a series of concentrations in liquid medium.

Assay [5] relates to Pseudomonas aeruginosa ATCC 9027. Particulars: P. aeruginosa; same MIC in μM (in brackets); broth microdilution, MHB II, overnight at 37 °C, triplicate. The method, then: as §1, §4
Assay [6] deals with Staphylococcus aureus ATCC 25923. Particulars: S. aureus; same MIC in μM (in brackets); broth microdilution, MHB II, overnight at 37 °C, triplicate. The method, then: as §1, §4
Assay [7] deals with Staphylococcus epidermidis ATCC 14990. As to conditions: S. epidermidis; same MIC in μM (in brackets); broth microdilution, MHB II, overnight at 37 °C, triplicate. The method, then:
as §1, §4

Assay [8] concerns Streptococcus pneumoniae ATCC 49619. As to conditions: S. pneumoniae; same MIC in μM (in brackets); broth microdilution, MHB II, overnight at 37 °C, triplicate. The method, then: as §1, §4
The test system of assay [9] is Streptococcus pyogenes PCM 465. As to conditions: S. pyogenes; same MIC in μM (in brackets); broth microdilution, MHB II, overnight at 37 °C, triplicate. The method, then: as §1, §4
Assay [10] concerns Staphylococcus aureus ATCC 25923 biofilm on contact lenses. The experiment in a line: Biofilm assay on contact lenses (MBEC, resazurin). Particulars: S. aureus, triplicate. The method, then: as §1, §2, §3
The test system of assay [11] is Staphylococcus epidermidis ATCC 14990 biofilm on contact lenses. The experiment in a line: Biofilm assay on contact lenses (MBEC, resazurin). Particulars: S. epidermidis, triplicate. The method, then: as §1, §2, §3
Assay [12] deals with Streptococcus pneumoniae ATCC 49619 biofilm on contact lenses. The experiment in a line: Biofilm assay on contact lenses (MBEC, resazurin). As to conditions: S. pneumoniae, triplicate. The method, then: as §1, §2, §3
The test system of assay [13] is Streptococcus pyogenes PCM 465 biofilm on contact lenses. As to the kind of experiment: Biofilm assay on contact lenses (MBEC, resazurin). Particulars: S. pyogenes, triplicate. The method, then:
as §1, §2, §3

Assay [14] relates to planktonic bacteria, all tested strains. The experiment in a line: Minimum inhibitory concentration, summary over all tested strains. As to conditions: summary of Table 1. The method, then:
as §1, §4

Where [15] appears, read: 25 °C, one-day biofilm on contact lens (Etafilcon A), 24 h exposure in MHB II, resazurin read-out.
The mark [16] stands for this setting: 25 °C, same MBEC in μM (in brackets), biofilm on contact lens, 24 h exposure.
[17] abbreviates: 37 °C, one-day biofilm on contact lens (Etafilcon A), 24 h exposure in MHB II, resazurin read-out.
Where [18] appears, read: 37 °C, same MBEC in μM (in brackets), biofilm on contact lens, 24 h exposure.

Where two headings read alike, the source gives them in different places. Where a SMILES comes first, the peptide text is derived from it. Where no end group is shown, it is not given here. The star is where a group is joined. Palmitoyl = CCCCCCCCCCCCCCCC(=O)* Where only a bound is given, the exact number is not on record here.

Consider “FLPLIGRVLSGIL-NH2 [Temporin A, reference compound]”, for which, in assay [1], the “Concentration eliminating P. aeruginosa from the lens surface (MBEC)” value came out at 512 µg/mL.

For the compound “GLFDVIKKVASVIGGL-NH2 [Citropin 1.1, reference compound]”, in [2] (ATCC 25922, 24 h), the “Concentration eradicating E. coli biofilms (MBEC)” value was in the range of 128 to 256 µg/mL. The “Concentration eliminating P. aeruginosa from the lens surface (MBEC)” value in [1] is 512 µg/mL. The “MBEC values, range over Gram-positive strains” value in assay [3] was 16 to 64 µg/mL.

Take `CCCCCCCCCCCCCCCC(=O)N[C@@H](CCCNC(=N)N)C(=O)N[C@@H](CCCNC(=N)N)C(N)=O` [Palm-RR-NH2] (Palmitoyl-Arg-Arg-NH2): the Minimum inhibitory concentration result in assay [4] is given as “(20.1) μM”; in assay [5] it was “(40.3) μM”; in assay [6], “(10.1) μM”; in [7] it was “(5.0) μM”; in [8], “(5.0) μM”; in assay [9], “(20.1) μM”. Further, the “Minimum biofilm eradication concentration (reduction of resazurin ≤10% ± 0.5%)” value in assay [10] (setting [15]) was 128 µg/mL; in assay [10] (setting [16]), “(161.0) μM”; in [10] (setting [17]), 256 µg/mL; in [10] (setting [18]), “(322.1) μM”; in assay [11] (setting [15]) it was 64 µg/mL; in [11] (setting [16]) it was “(80.5) μM”. Also, the “Minimum biofilm eradication concentration (reduction of resazurin ≤10% ± 0.5%)” value in assay [11] (setting [17]) is 32 µg/mL; in assay [11] (setting [18]) it was “(40.3) μM”; in [12] (setting [15]) it was 64 µg/mL; in [12] (setting [16]) it was “(80.5) μM”; in assay [12] (setting [17]), 32 µg/mL; in assay [12] (setting [18]) it was “(40.3) μM”. The “Minimum biofilm eradication concentration (reduction of resazurin ≤10% ± 0.5%)” value in assay [13] (setting [15]) was 128 µg/mL; in assay [13] (setting [16]), “(161.0) μM”; in assay [13] (setting [17]) it was over 512 µg/mL; in assay [13] (setting [18]), “(>644.1) μM”; in assay [2] (setting [15]), 256 µg/mL; in [2] (setting [16]) it was “(322.1) μM”. For the same compound, the “Minimum biofilm eradication concentration (reduction of resazurin ≤10% ± 0.5%)” value in [2] (setting [17]) is 512 µg/mL; in assay [2] (setting [18]) it was “(644.1) μM”; in assay [1] (setting [15]) it was over 512 µg/mL; in [1] (setting [16]), “(>644.1) μM”; in [1] (setting [17]), over 512 µg/mL; in assay [1] (setting [18]) it was “(>644.1) μM”.

In the case of GIGKFLKKAKKFGKAFVKILKK-NH2 [Pexiganan], the “Concentrations inhibiting bacterial growth (MIC), range over all tested strains” value in [14] lay within 1 to 8 mg/L.
